Values joined by “and” are separate entries in the source; they are usually repeats but may differ in a detail not shown here. Identical values can stand only once.
Legend:
[1] = test system: PBMC (CD8+ T cells) of HIV-1 infected individuals; assay: IFN-γ Elispot assay with PBMC and synthetic HIV-1 peptides; format: cell-based, human
Experimental: Peptides were added directly to the wells at a final concentration of 1×10^−5 molar. Cells were added to the wells at 50,000 to 100,000 cells per well. The plates were incubated at 37° C., 5% CO2 overnight (14-16 h) and then processed as described. IFN-γ producing cells were counted by direct visualization and are expressed as spot forming cells (SFC) per 10^6 cells. The number of specific IFN-γ secreting T-cells was calculated by subtracting the negative control value from the established SFC count. […] Responses ≧40 SFC per 10^6 input cells above background were considered positive. The positive control consisted of incubation of 100,000 PBMC with phytohaemagglutinin (PHA). […] Fine mapping of epitopes by Elispot assay was performed, using peptide truncations (e.g., as described in Altfield et al., 2000, J. Virol. 74:8541). 100,000 PBMC per well were incubated with concentrations from 10^−4 M to 10^−11 M of peptide overnight on the Elispot plate. All assays were run in duplicate. The optimal peptide was defined as the peptide that induced 50% maximal specific IFN-γ production of T-cells at the lowest peptide concentration.

HIV = assay: Level of CTL immune response elicited by peptide immunogen
CD8+ T cells = assay: Flow cytometric detection of antigen-induced intracellular IFN-γ; format: cell-based, human; settings: subject AC-06
Experimental: CD8+ T cells were non-specifically expanded from PBMC over 10 days, using a bi-specific […]. Peptide-specific CD8+ T cell lines were subsequently isolated using a standard IFN-γ catching assay. After expansion 10-20×10^6 CD8+ T cells were incubated on 24-well-plates with 20 μM peptide and 1 ug/ml each of the mAbs anti-CD28 and anti-CD49d (Becton Dickinson) at 37° C., 5% CO2, for 6-8 hour. Cell were subsequently labeled with a bi-specific CD45/IFN-γ catching antibody and incubated for 45 min at 37° C., 5% CO2. After several washes, the IFN-γ producing cells were stained with a second IFN-γ-PE detection antibody and separated by anti-PE mAb labeled with magnetic beads (MACS, Miltenyi Biotech, Hamburg, Germany). The isolated cells were then expanded for 10 days using autologous irradiated feeders.
Intracellular cytokine staining assays were performed using known methods, e.g.,described by Pitcher et al., 1999, Nature Medicine 5:518 or Goulder et al, 2000, J. Exp. Med. 192:1819). […] Cells were then washed and analyzed on a FACSort Flowcytometer (Becton Dickinson Immunocytometry systems, San Jose, Calif.) using peridinin chlorophyl protein (PerCP), allophycocyanin (APC) and fluorescein isothiocyanate (FITC) as fluorescent parameters. […]

With “ALIRILQQL (Human immunodeficiency virus type 1)” the “recognition (individuals with the corresponding HLA class I alleles that responded to the epitope)” value (“recognition” for short) [1] was 8/24 and the “level of the immune response elicited, compared with SEQ ID NO:1” value (HIV) was “at least 1 log”.
With AVRHFPRIW the “recognition” value [1] was 4/6.
In the case of “FPRIWLHGL (Human immunodeficiency virus type 1)”, the “recognition” value [1] is reported as 2/2 and 4/8 and the “individuals expressing the HLA allele that targeted the epitope” value ([1]; AL9: HLA-A2, FL9: HLA-B7) is reported as 4/8.
“GPGHKARVL (Human immunodeficiency virus type 1)” was tested, and the “contribution to total HIV-1-specific CD8 responses” value (CD8+ T cells) was 32% and the “percentage of CD8+ T cells specific for the epitope, intracellular IFN-γ” value (CD8+ T cells) was 5.6%.
In the case of “HPRVSSEVHI (Human immunodeficiency virus type 1)”, the “recognition” value [1] is reported as 3/8.
For “ISKKAKGWF (Human immunodeficiency virus type 1)”, the “recognition” value [1] was 2/6.
For “LADQLIHLHY (Human immunodeficiency virus type 1)”, the “recognition” value [1] was 2/5.
“REPHNEWTL (Human immunodeficiency virus type 1)” was tested, and the “recognition” value [1] was 1/1.
“RIRTWKSLVK (Human immunodeficiency virus type 1)” was tested, and the “recognition” value [1] was 3/15.
With “THPRVSSEVHIPLG (Human immunodeficiency virus type 1) [vif-10]” the “Magnitude of peptide-specific CD8+ T cell responses against Vif overlapping peptides, IFN-γ ELISPOT” value (from here on “Magnitude … IFN-γ ELISPOT”) ([1]; individual 6003) was 0 SFC/10^6 PMBC, the “Magnitude … IFN-γ ELISPOT” value ([1]; individual 6007) was 0 SFC/10^6 PMBC and the “Magnitude … IFN-γ ELISPOT” value ([1]; individual 6009) was 40 SFC/10^6 PMBC. The “Magnitude … IFN-γ ELISPOT” value ([1]; individual AC-01) was 0 SFC/10^6 PMBC, the “Magnitude … IFN-γ ELISPOT” value ([1]; individual AC-04) was 0 SFC/10^6 PMBC and the “Magnitude … IFN-γ ELISPOT” value ([1]; individual AC-06) was 11800 SFC/10^6 PMBC. The “magnitude of CTL response by Elispot” value ([1]; individual AC-06, text) was 1180 SFC/10^6 PBMC, the “Magnitude … IFN-γ ELISPOT” value ([1]; individual AC-07) was 0 SFC/10^6 PMBC and the “Magnitude … IFN-γ ELISPOT” value ([1]; individual AC-13) was 0 SFC/10^6 PMBC. For the same substance, the “Magnitude … IFN-γ ELISPOT” value ([1]; individual AC-27) was 0 SFC/10^6 PMBC, the “Magnitude … IFN-γ ELISPOT” value ([1]; individual AC-31) was 0 SFC/10^6 PMBC and the “Magnitude … IFN-γ ELISPOT” value ([1]; individual AC-36) was 0 SFC/10^6 PMBC. For the same substance, the “Magnitude … IFN-γ ELISPOT” value ([1]; individual AC-42) was 0 SFC/10^6 PMBC, the “Magnitude … IFN-γ ELISPOT” value ([1]; individual AC-43) was 0 SFC/10^6 PMBC and the “Magnitude … IFN-γ ELISPOT” value ([1]; individual AC-46) was 0 SFC/10^6 PMBC. For the same substance, the “Magnitude … IFN-γ ELISPOT” value ([1]; individual AC-59) was 840 SFC/10^6 PMBC, the “Magnitude … IFN-γ ELISPOT” value ([1]; individual AC-TZA) was 0 SFC/10^6 PMBC and the “Magnitude … IFN-γ ELISPOT” value ([1]; individual CMW) was 0 SFC/10^6 PMBC. The “Magnitude … IFN-γ ELISPOT” value ([1]; individual JMV) was 0 SFC/10^6 PMBC, the “Magnitude … IFN-γ ELISPOT” value ([1]; individual JRH) was 0 SFC/10^6 PMBC and the “Magnitude … IFN-γ ELISPOT” value ([1]; individual TMH#4) was 0 SFC/10^6 PMBC.
“vif-3: overlapping peptide (12-18mer) spanning the HIV-1 SF2 B clade Vif sequence (RIRTWKSLVK; Human immunodeficiency virus type 1)” was tested, and the “Magnitude … IFN-γ ELISPOT” value ([1]; individual 6003) was 0 SFC/10^6 PMBC, the “Magnitude … IFN-γ ELISPOT” value ([1]; individual 6007) was 0 SFC/10^6 PMBC and the “Magnitude … IFN-γ ELISPOT” value ([1]; individual 6009) was 290 SFC/10^6 PMBC. For the same substance, the “Magnitude … IFN-γ ELISPOT” value ([1]; individual AC-01) was 0 SFC/10^6 PMBC, the “Magnitude … IFN-γ ELISPOT” value ([1]; individual AC-04) was 0 SFC/10^6 PMBC and the “Magnitude … IFN-γ ELISPOT” value ([1]; individual AC-06) was 680 SFC/10^6 PMBC. For the same substance, the “Magnitude … IFN-γ ELISPOT” value ([1]; individual AC-07) was 0 SFC/10^6 PMBC, the “Magnitude … IFN-γ ELISPOT” value ([1]; individual AC-13) was 0 SFC/10^6 PMBC and the “Magnitude … IFN-γ ELISPOT” value ([1]; individual AC-27) was 0 SFC/10^6 PMBC. For the same substance, the “Magnitude … IFN-γ ELISPOT” value ([1]; individual AC-31) was 0 SFC/10^6 PMBC, the “Magnitude … IFN-γ ELISPOT” value ([1]; individual AC-36) was 0 SFC/10^6 PMBC and the “Magnitude … IFN-γ ELISPOT” value ([1]; individual AC-42) was 0 SFC/10^6 PMBC. The “Magnitude … IFN-γ ELISPOT” value ([1]; individual AC-43) was 0 SFC/10^6 PMBC, the “Magnitude … IFN-γ ELISPOT” value ([1]; individual AC-46) was 0 SFC/10^6 PMBC and the “Magnitude … IFN-γ ELISPOT” value ([1]; individual AC-59) was 0 SFC/10^6 PMBC. The “Magnitude … IFN-γ ELISPOT” value ([1]; individual AC-TZA) was 0 SFC/10^6 PMBC, the “Magnitude … IFN-γ ELISPOT” value ([1]; individual CMW) was 0 SFC/10^6 PMBC and the “Magnitude … IFN-γ ELISPOT” value ([1]; individual JMV) was 0 SFC/10^6 PMBC. For the same substance, the “Magnitude … IFN-γ ELISPOT” value ([1]; individual JRH) was 430 SFC/10^6 PMBC and the “Magnitude … IFN-γ ELISPOT” value ([1]; individual TMH#4) was 0 SFC/10^6 PMBC.

Source: US6974574B2, “Methods of inducing an HIV specific response using a Vpr-specific epitope” (The General Hospital Corporation, priority 2001, dated 2005)
